Measurements reported in patent publication US11919899B2, “Substituted 1-(3,3-difluoropiperidin-4-yl)-imidazo[4,5-c] quinolin-2-one compounds with blood-brain barrier penetrable capability” (priority 2020, dated 2024).

How the values were obtained:
[1] = Blood-brain barrier penetration (brain tissue to plasma concentration ratio); assay type: in vivo; settings: ratio of concentration in brain tissue to plasma; rats or mice, four hours after dosing
Experimental: Four hours after dosing, rats or mice were sacrificed, blood and brain tissue were collected and the concentration of the test compound was analyzed. Brain permeation is defined as the ratio of the concentration of the compound in the brain tissue to the concentration in the plasma. P-glycoprotein and BCRP (Breast Cancer Resistance Protein) are the blood-brain barrier efflux proteins, the P-glycoprotein substrate (Efflux ratio>1.5) and/or BCRP substrate (Efflux ratio>1.5) is out of the brain.

P-glycoprotein = P-glycoprotein (Homo sapiens, UniProt P08183); assay: P-glycoprotein efflux substrate; assay type: in vitro ADME; settings: not told
BCRP = molecular target: T1, BCRP (Homo sapiens, UniProt Q9UNQ0); assay: BCRP efflux substrate; assay type: in vitro ADME; settings: not told
T1 sequence (Q9UNQ0 1-655): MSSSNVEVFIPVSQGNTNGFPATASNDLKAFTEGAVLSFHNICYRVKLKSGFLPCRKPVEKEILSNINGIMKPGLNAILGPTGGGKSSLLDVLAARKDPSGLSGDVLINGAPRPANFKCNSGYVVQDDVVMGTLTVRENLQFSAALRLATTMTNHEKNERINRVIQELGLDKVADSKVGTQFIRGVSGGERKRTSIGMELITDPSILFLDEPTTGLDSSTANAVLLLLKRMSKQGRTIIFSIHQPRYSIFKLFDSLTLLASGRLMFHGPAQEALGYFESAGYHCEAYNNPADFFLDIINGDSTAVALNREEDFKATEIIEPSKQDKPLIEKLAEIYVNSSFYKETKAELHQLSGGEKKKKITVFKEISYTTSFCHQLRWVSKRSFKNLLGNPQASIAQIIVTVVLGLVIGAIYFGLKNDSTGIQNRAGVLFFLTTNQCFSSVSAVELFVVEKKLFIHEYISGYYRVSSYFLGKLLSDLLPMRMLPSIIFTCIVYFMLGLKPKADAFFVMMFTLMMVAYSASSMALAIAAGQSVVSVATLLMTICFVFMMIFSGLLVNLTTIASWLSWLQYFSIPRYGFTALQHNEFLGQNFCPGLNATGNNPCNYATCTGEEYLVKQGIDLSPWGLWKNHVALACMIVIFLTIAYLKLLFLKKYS

P-glycoprotein, sequence (P08183 whole entry): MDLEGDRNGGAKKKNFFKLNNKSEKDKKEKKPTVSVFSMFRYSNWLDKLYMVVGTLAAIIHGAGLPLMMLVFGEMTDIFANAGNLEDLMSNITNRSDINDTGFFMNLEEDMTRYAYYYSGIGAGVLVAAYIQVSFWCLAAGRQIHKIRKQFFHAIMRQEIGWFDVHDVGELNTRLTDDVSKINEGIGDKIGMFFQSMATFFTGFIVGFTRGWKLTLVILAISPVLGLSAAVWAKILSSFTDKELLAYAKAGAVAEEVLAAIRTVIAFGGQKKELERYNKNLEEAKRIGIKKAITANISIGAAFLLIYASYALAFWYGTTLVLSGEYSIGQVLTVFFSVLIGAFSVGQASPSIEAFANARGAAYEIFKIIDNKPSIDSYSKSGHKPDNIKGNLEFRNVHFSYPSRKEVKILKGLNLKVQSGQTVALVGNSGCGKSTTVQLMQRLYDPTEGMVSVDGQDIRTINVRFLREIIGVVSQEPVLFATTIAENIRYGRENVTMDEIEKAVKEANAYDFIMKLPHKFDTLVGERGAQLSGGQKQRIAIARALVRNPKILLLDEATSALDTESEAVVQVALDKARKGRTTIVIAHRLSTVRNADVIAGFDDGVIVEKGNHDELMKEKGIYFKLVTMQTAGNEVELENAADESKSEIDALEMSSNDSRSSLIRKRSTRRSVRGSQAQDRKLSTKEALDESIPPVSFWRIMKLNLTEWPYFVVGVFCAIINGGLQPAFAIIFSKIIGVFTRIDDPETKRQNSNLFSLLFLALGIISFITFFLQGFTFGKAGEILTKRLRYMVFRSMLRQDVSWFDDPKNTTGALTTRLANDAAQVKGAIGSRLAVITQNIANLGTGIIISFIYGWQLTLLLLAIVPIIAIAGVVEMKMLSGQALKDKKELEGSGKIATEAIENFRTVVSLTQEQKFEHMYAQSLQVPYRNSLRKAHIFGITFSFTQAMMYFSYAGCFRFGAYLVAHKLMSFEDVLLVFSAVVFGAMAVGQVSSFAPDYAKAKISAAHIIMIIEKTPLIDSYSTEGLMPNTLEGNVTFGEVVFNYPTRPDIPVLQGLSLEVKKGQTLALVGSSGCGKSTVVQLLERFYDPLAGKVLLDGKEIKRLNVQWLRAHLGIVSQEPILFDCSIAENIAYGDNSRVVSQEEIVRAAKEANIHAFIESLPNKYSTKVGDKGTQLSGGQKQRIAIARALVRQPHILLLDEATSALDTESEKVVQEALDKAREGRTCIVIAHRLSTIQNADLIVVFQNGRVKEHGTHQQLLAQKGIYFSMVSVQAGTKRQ

SMILES	Kp at 4 h [1]	efflux ratio (P-glycoprotein)	efflux ratio (BCRP)
CCN1CC[C@H](n2c(=O)n(C)c3cnc4ccc(-c5ccc(OC)nc5)cc4c32)C(F)(F)C1 [Compound 29, (S)-1-(1-ethyl-3,3-difluoropiperidin-4-yl)-8-(6-methoxypyridin-3-yl)-3-methyl-1,3-dihydro-2H-imidazo[4,5-c]quinolin-2-one]	> 0.3	< 1	< 1
COc1ccc(-c2cc3c(cc2F)ncc2c3n([C@H]3CCN(C)CC3(F)F)c(=O)n2C)cn1 [Compound 32, (S)-1-(3,3-difluoro-1-methylpiperidin-4-yl)-7-fluoro-8-(6-methoxypyridin-3-yl)-3-methyl-1,3-dihydro-2H-imidazo[4,5-c]quinolin-2-one]	> 0.3	< 1	< 1
CN1CC[C@H](n2c(=O)n(C)c3cnc4ccc(-c5ccc(N(C)C)nc5)cc4c32)C(F)(F)C1 [Compound 35, (S)-1-(3,3-difluoro-1-methylpiperidin-4-yl)-8-(6-(dimethylamino)pyridin-3-yl)-3-methyl-1,3-dihydro-2H-imidazo[4,5-c]quinolin-2-one]	> 0.3	< 1	< 1
CN1CC[C@H](n2c(=O)n(C)c3cnc4ccc(-c5ccc(OC6CC6)nc5)cc4c32)C(F)(F)C1 [Compound 37, (S)-8-(6-cyclopropoxypyridin-3-yl)-1-(3,3-difluoro-1-methylpiperidin-4-yl)-3-methyl-1,3-dihydro-2H-imidazo[4,5-c]quinolin-2-one]	> 0.3	< 1	< 1
CN1CC[C@H](n2c(=O)n(C)c3cnc4ccc(-c5ccc(N6CC(N(C)C)C6)nc5)cc4c32)C(F)(F)C1 [Compound 38, (S)-1-(3,3-difluoro-1-methylpiperidin-4-yl)-8-(6-(3-(dimethylamino)azetidin-1-yl)pyridin-3-yl)-3-methyl-1,3-dihydro-2H-imidazo[4,5-c]quinolin-2-one]	> 0.3	< 1	< 1
CN1CC[C@H](n2c(=O)n(C)c3cnc4ccc(-c5ccc(N6C[C@@H]7[C@H]6CCN7C)nc5)cc4c32)C(F)(F)C1 [Compound 40]	> 0.3	< 1	< 1
CN1CC[C@H](n2c(=O)n(C)c3cnc4ccc(-c5ccc(N6C[C@H]7[C@@H]6CCN7C)nc5)cc4c32)C(F)(F)C1 [Compound 41]	> 0.3	< 1	< 1

Next, values leading:

Kp at 4 h [1]	efflux ratio (P-glycoprotein)	efflux ratio (BCRP)	SMILES
> 0.3	< 1	< 1	COc1ccc(-c2ccc3ncc4c(c3c2)n([C@H]2CCN(C(C)C)CC2(F)F)c(=O)n4C)cn1 [Compound 30, (S)-1-(3,3-difluoro-1-isopropylpiperidin-4-yl)-8-(6-methoxypyridin-3-yl)-3-methyl-1,3-dihydro-2H-imidazo[4,5-c]quinolin-2-one]
> 0.3	< 1	< 1	CCOc1ccc(-c2ccc3ncc4c(c3c2)n([C@H]2CCN(C)CC2(F)F)c(=O)n4C)cn1 [Compound 31, (S)-1-(3,3-difluoro-1-methylpiperidin-4-yl)-8-(6-ethoxypyridin-3-yl)-3-methyl-1,3-dihydro-2H-imidazo[4,5-c]quinolin-2-one]
> 0.3	< 1	< 1	CC(C)Oc1ccc(-c2ccc3ncc4c(c3c2)n([C@H]2CCN(C)CC2(F)F)c(=O)n4C)cn1 [Compound 34, (S)-1-(3,3-difluoro-1-methylpiperidin-4-yl)-8-(6-isopropoxypyridin-3-yl)-3-methyl-1,3-dihydro-2H-imidazo[4,5-c]quinolin-2-one]
